Test results published in BindingDB's records for doi:10.1021/jm00122a003 (Tanabe Seiyaku, 1989).

Columns and labels:
[1] = target: Angiotensin-converting enzyme (Sus scrofa); test: Inhibitory activity on Angiotensin I converting enzyme (ACE) obtained from pig renal cortex and hippuryl-histidyl-leucine as substrate
[2] = target: Angiotensin-converting enzyme (Sus scrofa); test: as above; remark: listed apart in the source

| SMILES | IC50 [1] [nM] | IC50 [2] [nM] |
| --- | --- | --- |
| CC[C@H](N[C@@H](CCc1ccccc1)C(=O)O)C(=O)N1C(=O)N(Cc2ccccc2)C[C@H]1C(=O)O | 2.3 |  |
| CCCCCCCC[C@H](N[C@@H](C)C(=O)N1C(=O)N(C)C[C@H]1C(=O)O)C(=O)OCC | 5100 |  |
| C[C@H](N[C@@H](CCc1ccccc1)C(=O)O)C(=O)N1C(=O)N(Cc2ccccc2)C[C@H]1C(=O)O | 1.7 |  |
| CCCCN1C[C@@H](C(=O)O)N(C(=O)[C@H](C)N[C@@H](CCc2ccccc2)C(=O)O)C1=O | 6.7 |  |
| CC(C)CC[C@H](N[C@@H](C)C(=O)N1C(=O)N(Cc2ccccc2)C[C@H]1C(=O)O)C(=O)O | 3.3 |  |
| CCOC(=O)[C@H](CCc1ccccc1)N[C@@H](C)C(=O)N1C(=O)N(Cc2ccccc2)C[C@H]1C(=O)O | 7900 |  |
| CC(C)C[C@H](N[C@@H](C)C(=O)N1C(=O)N(Cc2ccccc2)C[C@H]1C(=O)O)C(=O)O | 2.1 |  |
| CCCCCCCC[C@H](N[C@@H](C)C(=O)N1C(=O)N(Cc2ccccc2)C[C@H]1C(=O)O)C(=O)OCC | 2200 |  |
| CCCCCCCC[C@H](N[C@@H](CC)C(=O)N1C(=O)N(C)C[C@H]1C(=O)O)C(=O)O | 2.4 |  |
| C[C@H](N[C@@H](CCc1ccccc1)C(=O)O)C(=O)N1C(=O)NC[C@H]1C(=O)O | 3.5 |  |
| C[C@@H](N[C@@H](CCc1ccccc1)C(=O)O)C(=O)N1C(=O)N(Cc2ccccc2)C[C@H]1C(=O)O | 2400 |  |
| C[C@H](N[C@@H](Cc1ccccc1)C(=O)O)C(=O)N1C(=O)N(Cc2ccccc2)C[C@H]1C(=O)O | 11 |  |
| CCCCCCCC[C@H](N[C@@H](CC)C(=O)N1C(=O)N(Cc2ccccc2)C[C@H]1C(=O)O)C(=O)O |  | 2.1 |
| CCCCCCCC[C@H](N[C@@H](C)C(=O)N1C(=O)N(Cc2ccccc2)C[C@H]1C(=O)O)C(=O)O | 1.5 |  |
| C[C@H](N)C(=O)N1C(=O)N(Cc2ccccc2)C[C@H]1C(=O)O |  | 1500 |
